Data published in patent US20140357841A1, “Method for stabilizing polypeptide into alpha helix” (Peking University Shenzhen Graduate School, priority 2013, published 2014).
Marks after values point to notes of the source that are not given here.

Legend:
[1] = circular dichroism (CD) detection of alpha helix content in PBS; type: physicochemical; parameters: [θ]215 / [θ]207 / [θ]190: unit not given here; conditions: for [θ]190 / [θ]207 / [θ]215 / [θ]215/[θ]207: CD; for [θ]190 / [θ]207 / [θ]215 / [θ]215/[θ]207 / relative content of alpha helix: PBS pH = 7.4, 22° C., 10 mM; for relative content of alpha helix: [θ]215(x)/[θ]215(ASOB), ASOB is the standard; for alpha helix stabilization / content by CD (in words): PBS 10 mM
Method: The obtained compound 4 is dissolved into of PBS (PH=7.4, 10 mM) for obtaining a CD diagram.
fH=([θ]obs215-[θ]C)/([θ]∞215-[θ]C);
wherein T=22° C.; κ=4.0; Np=6 (for pentapeptide); ι=0.1 (cm); C is a molarity M of the samples of the two isomers.

[2] = CD comparison in PBS and 50% trifluoroethanol (TFE) solution; type: physicochemical; conditions: CD in PBS versus 50% TFE solution
From the text: FIG. 2 is a CD diagram of the Ac-cyclo(1,5)-monoS5AAAC-NH2 sulfoxide B in the PBS and a 50% trifluoroethanol (TFE) solution according to the Example 1 of the present invention.

Substance | [θ]190 [1] | [θ]207 [1] | [θ]215 [1] | [θ]215/[θ]207 [1] | relative content of alpha helix [1] | improvement of the effects of stabilizing the alpha helix compared to conventional amido bond stabilization ([1]; versus control of Table 3, identical intermediate sequences) [%] | alpha helix stabilization / content by CD (in words) [1] | effect of TFE buffer solution on the alpha helix [2]
Ac-(cyclo2,6)-R[KAAAD]-NH2 [control, reference compound] | 39352 | −13684 | −13537 | 0.99 | 0.86** | – | – | –
Ac-cyclo(1,5)-monoS5AAAC-NH2 sulfoxide A [ASOA] | −14594 | −4667 | 672 | −0.14 | −0.04 | 14 | – | –
Ac-cyclo(1,5)-monoS5AAAC-NH2 sulfoxide B [ASOB] | 25987 | −16054 | −15666 | 0.98 | 1.00 | – | has stable alpha helixes | no improvements
Ac-cyclo(1,5)-monoS5AGAC-NH2 sulfoxide B [GSOB] | 9121 | −7777 | −7920 | 1.02 | 0.51 | – | identically high contents of the alpha helixes | –
Ac-cyclo(1,5)-monoS5AIAC-NH2 sulfoxide B [ISOB] | 26306 | −15556 | −13558 | 0.87 | 0.87 | – | identically high contents of the alpha helixes | –
Ac-cyclo(1,5)-monoS6AAAC-NH2 sulfoxide B | – | – | – | – | – | – | has effects of stabilizing alpha helix | –
